From patent US10617750B2, “Partner of SLD five 1 (PSF1)-derived peptide” (Vasculead Inc., priority 2012, dated 2020) come the findings set out here.

No end group written: not given here.

Data set [1] concerns T2 cells. Description: Human CTL cytotoxic assay. It counts as cell-based. As for the experimental part: Specifically, assay conditions were set with reference to a method described in a known report (New CFSE-based assay to determine susceptibility to lysis by cytotoxic T cells of leukemic precursor cells within a heterogeneous target cell population. Jedema I. et al. Blood 2004; 103:2677-2682).
As target cells for use in the cytotoxic assay, 1 μM of CellTracker™ Green CMFDA (5-chloromethylfluorescein diacetate) (Invitrogen Corp., Carlsbad, Calif.) was added to T2 cells, and these cells were allowed to react with each other at 37° C. for 15 minutes. The T2 cells were labeled with CMFDA, which is a fluorescent marker, washed with AIM-V, supplemented with assay peptides (20 μg/ml), and incubated for one night. As target cells of a negative control, T2 cells only labeled with a fluorescent marker were used (without peptide addition). The cells were washed with an AIM-V culture medium including antibiotic and serum to have a concentration of 5×10^4 cells/ml.
The cells were prepared to have concentrations of 50, 15, 5×10^4 cells/ml after washing with AIM-V. The preparation was performed with an AIM-V culture medium including antibiotic and serum.
Target cells (T) supplemented with peptides used in CTL induction or target cells (T) of a negative control supplemented with no peptides were mixed with effector cells (E) at a cell ratio (E/T ratio) of 10:1, 3:1, and 1:1, and cocultured for one night. Immediately before measurement with a MACS Quant (Miltenyi Biotec, San Diego, Calif.) or a FACS Aria, 0.1 μg/ml of DAPI was added in order to distinguish living cells from dead cells by means of staining. In an analysis, the proportion of DAPI-negative cells (living cells) in target cells labeled with CMFDA was obtained, and the survival rate of target cells was calculated using incubation conditions (only for target cells) where coculture with effector cells was not performed as 100%.

The test system of data set [2] is peptide specific human CTL. Description: Human CTL induction assay (IFN-γ ELISPOT). The conditions noted are these: for Positive donor number: HLA-A0201 healthy volunteers, positive = difference of 50 or more peptide specific spots; for Donor positive percentage: positive donors / donors examined. The format is cell-based. How it is done: A human CTL induction assay was conducted under conditions with reference to a known report (Harano et al. Int. J. Cancer 2008; 123:2616-2625).
Heparinized peripheral blood of healthy volunteers having HLA-A0201 was subjected to centrifugation at 3000 rpm for 20 minutes, thereby removing plasma. Cell pellets were supplemented with HBSS(−) (Wako Pure Chemical Industries, Ltd, Richmond, Va.) to which 5 mM of HEPES (SIGMA, Carlsbad, Calif.) had been added, and were suspended, thereby overlaying the suspension over a Ficoll-paque PREMIUM (GE Healthcare, Ltd., Pittsburgh, Pa.). Then, 400 g of the resulting substance was subjected to centrifugation for 40 minutes, and peripheral blood […] cells (PBMCs) separated as an intermediate layer were collected.
PBMCs were supplemented with CD14 microbeads (Miltenyi Biotec K.K.), and caused to react at 4° C. for 15 minutes. The cells were passed through LS columns (Miltenyi Biotec K.K., Tokyo, Japan), and CD14-positive cells were obtained by using QuadroMACS™ Separator (Miltenyi Biotec K.K., Tokyo, Japan). The rest of the cells were collected and washed, and then supplemented with CD8 microbeads (Miltenyi Biotec K.K., Tokyo, Japan) and allowed to react at 4° C. for 15 minutes. Thereafter, a similar process is performed, thereby obtaining CD8-positive cells. The CD14-positive cells were subjected to differentiation induction to monocyte-derived dendritic cells (Mo-DCs), and CD8-positive cells were temporarily frozen for storage.
Since CD8-positive cells were subjected to antigen stimulation twice, peptide-presenting cells were produced twice accordingly. CD14-positive cells were disseminated in two RepCell plates (CellSeed Inc., Tokyo, Japan), and incubated in a 5% CO2 incubator at 37° C. with a culture solution in which 100 ng/ml GM-CSF (R&D Systems, Minneapolis, Minn.) and 10 ng/ml IL-4 (R&D Systems) were added to an AIM-V (Invitrogen Corporation, Carlsbad, Calif.) culture medium including antibiotic and serum.
First production of peptide-presenting cells was started 5-7 days after the start of incubation. To one of the plates, 0.1 KE/ml OK-432 (Chugai Pharmaceutical Co., Ltd., Tokyo, Japan) was added, and on the next day, cells were collected and inoculated in a 96-well U-bottom plate. Then, 20 μg/ml of assay peptide of one type was added to each half area (48 wells) of the plate, and incubated for one day at 37° C. in a 5% CO2 incubator, thereby producing peptide-presenting cells. Second production was performed similarly on the other plate 12-14 days after the start of incubation.
Peptide-presenting cells in a 96-well plate were irradiated with X rays (30 Gy), and the frozen stored CD8-positive cells were added to all the wells, thereby performing first antigen stimulation. As a culture solution, a solution in which 10 ng/ml IL-7 (R&D Systems, Minneapolis, Minn.) was added to an AIM-V culture medium including antibiotic and serum was used. After incubation for seven days, cells included in supernatant were collected and cocultured with peptide-presenting cells (after X-ray irradiation) obtained by the second production, thereby performing second antigen stimulation in the 96-well plate. At this time, 20 U/mL of IL-2 (Shionogi & Co., Ltd., Florham Park, N.J.) was added to the culture solution. After further incubation for seven days, cells in supernatant including CTL were collected and washed with an AIM-V culture medium including antibiotic and serum to have a concentration of approximately 2×10^5 cells/ml per well, thereby obtaining responder cells for an ELISPOT assay.
T2 cells of stimulator cells for use in an ELISPOT assay were produced by incubating the cells for one night in an AIM-V culture medium supplemented with an assay peptide (20 μg/mL). As stimulator cells of a negative control, only T2 cells were used (without peptides). […]

Data set [3] has as its system peptide specific CTL. Kind of data set: CTL inducibility of peptides (summary statement). The format is cell-based. An excerpt: According to the embodiments of the present invention, the phrase “having CTL inducibility” means that the peptide is recognized by a specific CTL. In other word, the peptide has an ability to induce a peptide specific CTL. […] The ability to induce the peptide specific CTL can be examined by, for example, determining whether or not a cytokine such as interferon-γ (IFN-γ) is produced by peptide-stimulated peripheral blood mononuclear cells (PBMCs) in response to antigen presenting cells which are pulsed with said peptide using the ELISA technique or the like. In addition, cytotoxic activity of the induced CTL can be determined by the ^51Cr-release assay and the like. The peptide of the present invention is preferred to have 8 to 14, more preferably 8 to 11 and especially, 9 or 10 amino acid residues in view of good recognition by CTL.
These all three peptides are located in the region from 79 to 100 of PSF1 (FIG. 3). […] (SEQ ID NO.:6) or […] (SEQ ID NO.: 8) or […]

Data set [4] has as its system peptide specific CTL through HLA-A02. Kind of data set: Mouse CTL induction assay (IFN-γ ELISPOT after peptide immunization). The format is in vivo. The settings on record: CB6F1-Tg (HLA-A0201/H2-Kb) mice, 50 μg peptide/mice, spleen cells two weeks after injection; IFN-γ spots minus negative control peptide. As for the experimental part:
The mouse CTL inducing activity with peptides was determined by using mouse immune models. Regarding mice, CB6F1-Tg (HLA-A0201/H2-Kb)A0201 was obtained from Taconic Biosciences, Inc. At most five types of peptide solutions dissolved in DMSO were mixed to produce a PBS solution, and the PBS solution was mixed together with the same amount of MONTANIDE ISA 51VG (SEPPIC), thereby producing an emulsion antigen solution. Then, 50 μL of the antigen solution was used for hypodermic injection into each of two sites at both sides of the belly of the mice (50 μg peptide/mice, N=3-4). Two weeks after the injection, spleen was removed, and spleen cells from which erythrocyte had been eliminated with a solution (BD Pharm Lyse™, Becton, Dickinson and Company, La Jolla, Calif.) were collected as responder cells for an ELISPOT assay.
The ELISPOT assay was conducted by detecting IFN-γ produced from responder cells. The procedure thereof conformed to an accompanying document of an assay kit, Mouse IFN-γ ELISpot^PLUS (MABTECH, Cincinnati, Ohio). Preincubation for the IFN-γ production was performed by adding cells to a 96-well plate included in the assay kit. Stimulator cells were inoculated in a duplicate well or a single well of 5×10^4 cell/100 μL/well, and then responder cells were added to 2×10^6 cell/100 μL/well. After one-night coculture, the cells were removed and the well was washed, and then primary antibodies (biotin-antimouse IFN-γ antibodies) included in the assay kit were added. After reaction for two hours at room temperature, the well was washed, supplemented with secondary antibodies (streptavidin-ALP), and subjected to reaction for one hour at room temperature. After having been sufficiently washed, the cells were supplemented with a substrate solution and left for one minute at room temperature. To terminate coloring reaction, the plate was sufficiently washed with running water and was air-dried.
The number of blue spots observed at the well bottom was measured with an ImmunoSpot® S5 Verse Analyzer (Cellular Technology Limited, Shaker Heights, Ohio). Measurement values of unclear spots because of a wide range of coloring were not used. An average value was obtained for the duplicate well, and the difference from the negative control was calculated in order to obtain the number of spots specific to peptides. The average value and the SD value were calculated by using values for individual mice, and the case having a positive number of differences between the average value and the SD value was determined as positive.

For the sequence ALRWEYGSV, in data set [1], the cytotoxic activity result is reported as “particularly high”.

Turning to “ALRWEYGSVL [PSF1-derived peptide, initiating amino acid no; 89]”, in data set [2], the Positive donor number is 2 and the Donor positive percentage is 100%. For the same sequence, the “Survival rate of target cells pulsed with peptide vs not pulsed” value in data set [1] (CTL line specific to the peptide cocultured with T2 cells at E:T 1:1, 3:1, 10:1, FIG. 2) is reported as “decreased to a degree greater than target cells not pulsed with peptides”. The CTL inducibility result in data set [3] was “high”.

Turning to “ALYEQNQDSV [PSF1-derived peptide, initiating amino acid no; 38]”, the “Specific spot number (Ave ± SD)” value in data set [4] was determined as 30 ± 15.

Turning to “AYLYDRLLRI [PSF1-derived peptide, initiating amino acid no; 78]”, the “Specific spot number (Ave ± SD)” value in data set [4] stood at 23 ± 21. The CTL inducibility entry in data set [3] is recorded as “high”.

For the sequence “CLKDYGEFEV [PSF1-derived peptide, initiating amino acid no; 152]”, the “Specific spot number (Ave ± SD)” value in data set [4] is on record as 53 ± 28.

As to “EMKALYEQN [PSF1-derived peptide, initiating amino acid number 35]”, the “Specific spot number (Ave ± SD)” value in data set [4] is 6 ± 8. In data set [2], this sequence had a Positive donor number of 1 and a Donor positive percentage of 13%.

On to “FLPRWKCEQL [PSF1-derived peptide, initiating amino acid no; 176]”, for which the “Specific spot number (Ave ± SD)” value in data set [4] worked out at 31 ± 24.

As for “GDEGLDITQDMKP [PSF1-derived peptide, initiating amino acid number 130]”, the “Specific spot number (Ave ± SD)” value in data set [4] is 1 ± 2. In data set [2], this sequence came in with a Positive donor number of 0 and a Donor positive percentage of 0%.

For “KAMELIREL [PSF1-derived peptide, initiating amino acid no]”, the “Specific spot number (Ave ± SD)” value in data set [4] was found to be 22 ± 13.

In the case of LIRNRRCTV, the “Specific spot number (Ave ± SD)” value in data set [4] amounted to 7 ± 9.

Regarding “LPAFNEDGLRQV [PSF1-derived peptide, initiating amino acid number 21]”, the “Specific spot number (Ave ± SD)” value in data set [4] is on record as 3 ± 8. In data set [2], this sequence gave a Positive donor number of 0 and a Donor positive percentage of 0%.

With “QVLEEMKAL [PSF1-derived peptide, initiating amino acid no; 31]”, in data set [4], the “Specific spot number (Ave ± SD)” value came out at 7 ± 7.

In data set [2], “RALRWEYGSV [PSF1-derived peptide, initiating amino acid no; 88]” returned a Positive donor number of 3 and a Donor positive percentage of 60%. Also, the CTL inducibility entry in data set [3] was “high”.

For the sequence RALRWEYGSVLPN, the cytotoxic activity entry in data set [1] was “particularly high”.

Take “SLATYMRSL [PSF1-derived peptide, initiating amino acid no; 120]”: in data set [4], the “Specific spot number (Ave ± SD)” value turned out to be 70 ± 79.

For “SLLRNRRCTV [PSF1-derived peptide, initiating amino acid no; 68]”, the “Specific spot number (Ave ± SD)” value in data set [4] is on record as 1 ± 2.

For “SLYIEVRCL [PSF1-derived peptide, initiating amino acid no; 145]”, the “Specific spot number (Ave ± SD)” value in data set [4] was determined as 43 ± 24. Besides, in data set [2], the Positive donor number is listed as 2 and the Donor positive percentage came to 100%.

Regarding “VLPNALRFHM [PSF1-derived peptide, initiating amino acid no; 97]”, the “Specific spot number (Ave ± SD)” value in data set [4] was 127 ± 41.

Regarding YLYDRLLRI, the cytotoxic activity result in data set [1] is listed as “particularly high”.

For the sequence “YLYDRLLRIR [PSF1-derived peptide, initiating amino acid no; 79]”, in data set [4], the “Specific spot number (Ave ± SD)” value was 165 ± 17. The CTL inducibility entry in data set [3] is given as “high”.
